Measurements from patent publication US10150728B2, “Alkylene derivatives” (Shionogi & Co., Ltd., priority 2013, dated 2018).

Biological target: recombinant human ACC2 (Homo sapiens (Human), UniProt O00763)
Test: Measurement of inhibitory activity on human ACC2 (MALDI-TOF MS, acetyl CoA to malonyl CoA conversion)
Type: biochemical
Settings: Tables 155-159
Outline: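 His-tagged human ACC2 (residues 27–2458) from baculovirus-infected Sf-9 cells was preincubated 1 h in pH 7.4 HEPES-KOH buffer with MgCl2, 6-10 mM potassium citrate, glutathione and BSA. Substrate solution held 1 mM ATP, 0.8 mM acetyl CoA and 25-50 mM bicarbonate. After 1–3 h at room temperature, malonyl CoA/(malonyl+acetyl CoA) was read by negative-mode MALDI-TOF MS; citrate, bicarbonate and time varied by enzyme lot.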

Sequence of recombinant human ACC2 (O00763 27-2458): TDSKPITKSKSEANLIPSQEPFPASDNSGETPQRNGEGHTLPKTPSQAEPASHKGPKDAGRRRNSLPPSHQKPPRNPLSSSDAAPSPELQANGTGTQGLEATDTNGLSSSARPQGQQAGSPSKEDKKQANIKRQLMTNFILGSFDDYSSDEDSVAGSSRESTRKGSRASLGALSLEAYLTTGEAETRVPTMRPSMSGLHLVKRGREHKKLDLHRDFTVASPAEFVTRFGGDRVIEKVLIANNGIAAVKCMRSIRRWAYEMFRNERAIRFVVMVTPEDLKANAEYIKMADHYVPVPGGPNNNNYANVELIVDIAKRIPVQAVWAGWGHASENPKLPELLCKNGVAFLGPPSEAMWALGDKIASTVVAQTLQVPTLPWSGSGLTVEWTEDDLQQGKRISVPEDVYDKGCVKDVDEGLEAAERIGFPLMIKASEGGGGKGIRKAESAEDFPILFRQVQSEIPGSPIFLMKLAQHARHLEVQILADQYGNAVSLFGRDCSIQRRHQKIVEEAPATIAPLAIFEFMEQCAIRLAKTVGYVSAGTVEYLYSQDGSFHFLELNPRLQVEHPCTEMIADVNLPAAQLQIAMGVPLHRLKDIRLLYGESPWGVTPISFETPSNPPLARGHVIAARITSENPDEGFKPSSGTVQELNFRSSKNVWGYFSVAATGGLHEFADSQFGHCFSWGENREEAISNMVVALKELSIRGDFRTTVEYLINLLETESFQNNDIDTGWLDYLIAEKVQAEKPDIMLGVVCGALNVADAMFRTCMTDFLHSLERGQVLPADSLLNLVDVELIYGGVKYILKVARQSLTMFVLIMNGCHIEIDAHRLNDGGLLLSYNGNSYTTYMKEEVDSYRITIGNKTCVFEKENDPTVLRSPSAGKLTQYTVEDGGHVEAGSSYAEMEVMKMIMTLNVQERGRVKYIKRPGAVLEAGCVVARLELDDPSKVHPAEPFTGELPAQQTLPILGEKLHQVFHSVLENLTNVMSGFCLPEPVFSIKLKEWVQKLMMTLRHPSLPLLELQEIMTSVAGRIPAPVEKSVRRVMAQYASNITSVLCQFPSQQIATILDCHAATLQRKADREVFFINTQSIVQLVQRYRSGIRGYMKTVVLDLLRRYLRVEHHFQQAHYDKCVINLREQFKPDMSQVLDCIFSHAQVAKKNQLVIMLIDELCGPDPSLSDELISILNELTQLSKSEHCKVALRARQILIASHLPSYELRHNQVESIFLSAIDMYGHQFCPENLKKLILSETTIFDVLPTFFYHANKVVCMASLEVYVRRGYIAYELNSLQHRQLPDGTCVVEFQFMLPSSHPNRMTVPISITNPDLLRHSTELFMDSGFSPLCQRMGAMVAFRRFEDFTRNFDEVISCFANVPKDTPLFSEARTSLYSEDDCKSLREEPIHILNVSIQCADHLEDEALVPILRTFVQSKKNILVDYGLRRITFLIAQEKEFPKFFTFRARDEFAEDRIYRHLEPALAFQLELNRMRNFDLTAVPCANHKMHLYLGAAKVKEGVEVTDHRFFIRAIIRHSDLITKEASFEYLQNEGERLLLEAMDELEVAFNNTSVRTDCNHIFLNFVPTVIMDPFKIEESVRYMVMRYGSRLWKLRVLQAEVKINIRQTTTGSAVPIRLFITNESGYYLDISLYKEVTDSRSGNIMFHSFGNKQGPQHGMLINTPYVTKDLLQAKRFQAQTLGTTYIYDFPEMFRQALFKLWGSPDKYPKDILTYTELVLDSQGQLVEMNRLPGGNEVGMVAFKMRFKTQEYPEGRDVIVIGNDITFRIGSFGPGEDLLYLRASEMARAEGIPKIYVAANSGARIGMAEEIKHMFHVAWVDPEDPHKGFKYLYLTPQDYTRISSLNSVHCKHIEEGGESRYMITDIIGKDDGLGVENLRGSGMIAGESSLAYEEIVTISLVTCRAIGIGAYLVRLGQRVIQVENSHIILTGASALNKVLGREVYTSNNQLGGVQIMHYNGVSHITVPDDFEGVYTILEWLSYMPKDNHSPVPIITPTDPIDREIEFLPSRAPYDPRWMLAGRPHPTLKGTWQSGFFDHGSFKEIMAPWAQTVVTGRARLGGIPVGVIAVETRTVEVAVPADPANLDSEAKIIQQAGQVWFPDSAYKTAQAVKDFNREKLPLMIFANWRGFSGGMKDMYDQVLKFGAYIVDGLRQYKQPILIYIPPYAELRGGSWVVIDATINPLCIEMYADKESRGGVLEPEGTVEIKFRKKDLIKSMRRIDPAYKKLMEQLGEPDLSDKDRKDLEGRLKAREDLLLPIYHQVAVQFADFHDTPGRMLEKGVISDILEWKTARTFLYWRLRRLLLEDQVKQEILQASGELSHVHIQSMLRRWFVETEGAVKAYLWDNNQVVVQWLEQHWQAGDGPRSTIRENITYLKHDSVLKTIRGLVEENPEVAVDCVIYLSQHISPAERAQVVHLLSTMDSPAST

CO[C@H]1C[C@H](Oc2nc3ccc(OC[C@H]4C[C@H](OC[C@H](C)NC(C)=O)C4)nc3s2)C1 [Compound I-280]
IC50: 79 nM

CO[C@H]1C[C@@H](Oc2nc3ccc(OC[C@H]4C[C@H](OC[C@H](C)NC(C)=O)C4)nc3s2)C1 [Compound I-281]
IC50: 41 nM

CC(=O)N[C@@H](C)CO[C@H]1C[C@H](COc2ccc3nc(N(C)CC#N)sc3n2)C1 [Compound I-282]
IC50: 892 nM

CC(=O)N[C@@H](C)CO[C@H]1C[C@H](COc2ccc3nc(O[C@@H]4CO[C@@H]5CCO[C@@H]54)sc3n2)C1 [Compound I-283]
IC50: 984 nM

CC(=O)N[C@@H](C)CO[C@H]1C[C@H](COc2ccc3nc(N4CC5(CCC5)C4)sc3n2)C1 [Compound I-284]
IC50: 17 nM

C[C@@H](CO[C@H]1CC[C@H](Oc2ncc3nc(OC4CC4)sc3c2F)CC1)NC(N)=O [Compound I-285]
IC50: 38 nM

CC(=O)N[C@@H](C)CO[C@H]1C[C@H](COc2ccc3nc(N4CC(F)(F)C4)sc3c2F)C1 [Compound I-286]
IC50: 125 nM

CC(=O)N[C@@H](C)CO[C@H]1C[C@H](COc2ccc3nc(N4CC[C@@H](F)C4)sc3n2)C1 [Compound I-287]
IC50: 51 nM

CC(=O)N[C@@H](C)CO[C@H]1C[C@H](COc2ccc3nc(N4CCC(C#N)C4)sc3n2)C1 (stereo partly drawn) [Compound I-288]
IC50: 759 nM

CC(=O)N[C@@H](C)CO[C@H]1C[C@H](COc2ccc3nc(N4CC[C@H](F)C4)sc3n2)C1 [Compound I-289]
IC50: 110 nM

C[C@@H](CO[C@H]1CC[C@H](Oc2cc3sc(OCC4CC4(F)F)nc3cn2)CC1)NC(=O)CO (stereo partly drawn) [Compound I-290]
IC50: 82 nM

C[C@@H](CO[C@H]1CC[C@H](Oc2cc3sc(OCC4CC4(F)F)nc3cn2)CC1)NC(N)=O (stereo partly drawn) [Compound I-291]
IC50: 32 nM

CC(=O)N[C@@H](C)CO[C@H]1C[C@](C)(COc2ccc3nc(OC4CC4)sc3n2)C1 [Compound I-292]
IC50: 52 nM

CC(=O)N[C@@H](C)CO[C@H]1C[C@H](COc2ccc3nc(O[C@H]4C[C@H](O)C4)sc3n2)C1 [Compound I-293]
IC50: 171 nM

CC(=O)N[C@@H](C)CO[C@H]1C[C@H](COc2ccc3nc(O[C@H]4C[C@@H](O)C4)sc3n2)C1 [Compound I-294]
IC50: 300 nM

CC(=O)N[C@@H](C)CO[C@H]1C[C@H](COc2ccc3nc(O[C@H]4C[C@H](F)C4)sc3n2)C1 [Compound I-295]
IC50: 12 nM

CC(=O)N[C@@H](C)CO[C@H]1C[C@H](COc2ccc3nc(O[C@H]4C[C@@H](F)C4)sc3n2)C1 [Compound I-296]
IC50: 6 nM

CC(=O)N[C@@H](C)CO[C@H]1C[C@](F)(COc2ccc3nc(OCC(F)F)sc3n2)C1 [Compound I-297]
IC50: 42 nM

CC(=O)N[C@@H](C)CO[C@H]1C[C@](F)(COc2ccc3nc(OC4CC4)sc3n2)C1 [Compound I-298]
IC50: 52 nM

CC(=O)N[C@@H](C)CO[C@H]1C[C@](F)(COc2ccc3nc(OC(C)C)sc3n2)C1 [Compound I-299]
IC50: 26 nM

CC(=O)N[C@@H](C)CO[C@H]1C[C@H](COc2ccc3nc(OCC(C)(C)O)sc3n2)C1 [Compound I-300]
IC50: 165 nM

CC(=O)N[C@@H](C)CO[C@H]1C[C@H](COc2ccc3nc(OC4CC(C#N)C4)sc3n2)C1 (stereo partly drawn) [Compound I-301]
IC50: 37 nM

CC(=O)N[C@@H](C)CO[C@H]1C[C@H](COc2ccc3nc(OCC(C)(C)C#N)sc3n2)C1 [Compound I-302]
IC50: 52 nM

CC(=O)N[C@@H](C)CO[C@H]1C[C@H](COc2ccc3nc(Oc4ccc(F)nc4)sc3n2)C1 [Compound I-303]
IC50: 68 nM

CC(=O)N[C@@H](C)CO[C@H]1C[C@H](COc2ccc3nc(Oc4ccc(F)cn4)sc3n2)C1 [Compound I-304]
IC50: 242 nM

CC(=O)N[C@@H](C)CO[C@H]1C[C@H](COc2ccc3nc(Oc4ccc(F)cc4)sc3n2)C1 [Compound I-305]
IC50: 22 nM

CC(=O)N[C@@H](C)CO[C@H]1C[C@H](COc2ccc3nc(OC[C@@H](C)F)sc3n2)C1 [Compound I-306]
IC50: 15 nM

CC(=O)N[C@@H](C)CO[C@H]1C[C@H](COc2ccc3nc(OC4COC4)sc3n2)C1 [Compound I-307]
IC50: 43 nM

CC(=O)N[C@@H](C)CO[C@H]1C[C@H](COc2ccc3nc(OCC4CC4)sc3n2)C1 [Compound I-308]
IC50: 6 nM

CC(=O)N[C@@H](C)CO[C@H]1C[C@H](COc2nccc(-c3ccc(F)cc3)c2F)C1 [Compound I-309]
IC50: 24 nM

CC(=O)N[C@@H](C)CO[C@H]1C[C@H](COc2nccc(-c3ccc(F)cc3)c2Cl)C1 [Compound I-310]
IC50: 34 nM

CC(=O)N[C@@H](C)CO[C@H]1C[C@H](COc2nccc(-c3ncc(F)cn3)c2F)C1 [Compound I-311]
IC50: 106 nM

CC(=O)N[C@@H](C)CO[C@H]1C[C@H](COc2nccc(-c3ncc(OC(C)C)cn3)c2Cl)C1 [Compound I-312]
IC50: 401 nM

CC(=O)N[C@@H](C)CO[C@H]1C[C@H](COc2nccc(-c3ccc(F)cc3)c2C)C1 [Compound I-313]
IC50: 72 nM

CC(=O)N[C@@H](C)CO[C@H]1C[C@H](COc2nccc(OCC3CC3)c2Cl)C1 [Compound I-314]
IC50: 25 nM

CC(=O)N[C@@H](C)CO[C@H]1C[C@H](COc2nccc(OCC(F)F)c2Cl)C1 [Compound I-315]
IC50: 503 nM

CC(=O)N[C@@H](C)CO[C@H]1C[C@H](COc2nccc(OCC3CC3(F)F)c2Cl)C1 (stereo partly drawn) [Compound I-316]
IC50: 74 nM

CC(=O)N[C@@H](C)CO[C@H]1C[C@H](COc2nccc(C3=CCCCC3)c2Cl)C1 [Compound I-317]
IC50: 14 nM

CC(=O)N[C@@H](C)CO[C@H]1C[C@H](COc2nccc3ccccc23)C1 [Compound I-318]
IC50: 49 nM

CC(=O)N[C@@H](C)CO[C@H]1C[C@H](COc2nccc(-c3ccc(F)cc3)c2C#N)C1 [Compound I-319]
IC50: 281 nM

CC(=O)N[C@@H](C)CO[C@H]1C[C@H](COc2nccc(-c3ccc(C(F)(F)F)cc3)c2Cl)C1 [Compound I-320]
IC50: 67 nM

COc1cnc(-c2ccnc(OC[C@H]3C[C@H](OC[C@H](C)NC(C)=O)C3)c2Cl)nc1 [Compound I-321]
IC50: 167 nM

CC(=O)N[C@@H](C)CO[C@H]1C[C@H](COc2nccc(-c3ncc(C(F)(F)F)cn3)c2Cl)C1 [Compound I-322]
IC50: 63 nM

CC(=O)N[C@@H](C)CO[C@H]1C[C@H](COc2nccc(N3CC(F)(F)C3)c2Cl)C1 [Compound I-323]
IC50: 345 nM

CC(=O)N[C@@H](C)CO[C@H]1C[C@H](COc2nccc(N3CCCCC3)c2Cl)C1 [Compound I-324]
IC50: 51 nM

CC(=O)N[C@@H](C)CO[C@H]1C[C@H](COc2nccc(N3CCCC3)c2Cl)C1 [Compound I-325]
IC50: 37 nM

CC(=O)N[C@@H](C)CO[C@H]1C[C@H](COc2nccc(OCC(F)(F)F)c2Cl)C1 [Compound I-326]
IC50: 280 nM

CC(=O)N[C@@H](C)CO[C@H]1C[C@H](COc2nccc(-n3cc(C(F)(F)F)cn3)c2Cl)C1 [Compound I-327]
IC50: 80 nM

CC(=O)N[C@@H](C)CO[C@H]1C[C@H](COc2nccc3c2CCN3Cc2ccccc2)C1 [Compound I-328]
IC50: 18 nM

CC(=O)N[C@@H](C)CO[C@H]1C[C@H](COc2nccc3c2ccn3Cc2ccccc2)C1 [Compound I-329]
IC50: 14 nM

CC(=O)N[C@@H](C)CO[C@H]1C[C@H](COc2nccc(N3CCC(F)CC3)c2Cl)C1 [Compound I-330]
IC50: 105 nM

CC(=O)N[C@@H](C)CO[C@H]1C[C@H](COc2nccc3c2OCC2CCCN32)C1 (stereo partly drawn) [Compound I-331]
IC50: 470 nM

CC(=O)N[C@@H](C)CO[C@H]1C[C@H](COc2nccc(N3C4CCC3CC4)c2Cl)C1 [Compound I-332]
IC50: 56 nM

CC(=O)N[C@@H](C)CO[C@H]1C[C@H](COc2nccc(-c3csc(C)n3)c2C)C1 [Compound I-333]
IC50: 203 nM

CC(=O)N[C@@H](C)CO[C@H]1C[C@H](COc2nccc3cc(F)ccc23)C1 [Compound I-334]
IC50: 179 nM

CC(=O)N[C@@H](C)CO[C@H]1C[C@H](COc2nccc(C3=CCCC3)c2Cl)C1 [Compound I-335]
IC50: 18 nM

CC(=O)N[C@@H](C)CO[C@H]1C[C@H](COc2nccc(C3=CCCC3)c2C)C1 [Compound I-336]
IC50: 25 nM

CC(=O)N[C@@H](C)CO[C@H]1C[C@H](COc2nccc(N3CC4(CCC4)C3)c2Cl)C1 [Compound I-337]
IC50: 7 nM

CC(=O)N[C@@H](C)CO[C@H]1C[C@H](COc2ncnc(N3CCCC3)c2Cl)C1 [Compound I-338]
IC50: 26 nM

CC(=O)N[C@@H](C)CO[C@H]1C[C@H](COc2nccc(NC(=O)c3ccccc3)c2Cl)C1 [Compound I-339]
IC50: 35 nM

CC(=O)N[C@@H](C)CO[C@H]1C[C@H](COc2ncnc(NCc3cccc(Cl)c3)c2Cl)C1 [Compound I-340]
IC50: 21 nM

CC(=O)N[C@@H](C)CO[C@H]1C[C@H](COc2ncnc(OC(C)c3ccccc3)c2Cl)C1 (stereo partly drawn) [Compound I-341]
IC50: 119 nM

CC(=O)N[C@@H](C)CO[C@H]1C[C@H](COc2ncnc(NCc3cccc(C(F)(F)F)c3)c2Cl)C1 [Compound I-342]
IC50: 108 nM

CC(=O)N[C@@H](C)CO[C@H]1C[C@H](COc2ncnc(NCc3cccc(C#N)c3)c2Cl)C1 [Compound I-343]
IC50: 118 nM

CC(=O)N[C@@H](C)CO[C@H]1C[C@H](COc2ncnc(NCc3ccc(Cl)cc3)c2Cl)C1 [Compound I-344]
IC50: 13 nM

CC(=O)N[C@@H](C)CO[C@H]1C[C@H](COc2ncnc(OCCc3ccccc3)c2Cl)C1 [Compound I-345]
IC50: 38 nM

CC(=O)N[C@@H](C)CO[C@H]1C[C@H](COc2ncnc(OCc3cccc(C#N)c3)c2Cl)C1 [Compound I-346]
IC50: 19 nM

CC(=O)N[C@@H](C)CO[C@H]1C[C@H](COc2ncnc(OCc3ccc(C#N)cc3)c2Cl)C1 [Compound I-347]
IC50: 55 nM

COc1ccc(COc2ncnc(OC[C@H]3C[C@H](OC[C@H](C)NC(C)=O)C3)c2Cl)cn1 [Compound I-348]
IC50: 57 nM
